Reference: patent US9617602B2, “Methods and compositions for determining resistance to androgen receptor therapy” (Aragon Pharmaceuticals, Inc., priority 2012, dated 2017)

Experiments:
[1] = test system: LNCaP/AR(cs) cells; assay: Endogenous gene transcriptional assay (real-time PCR of androgen responsive genes); format: cell-based, human;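 as to ORM1 expression, agonist transcription: LNCaP/AR(cs) cells without added R1881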;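 as to PLD1 expression, agonist transcription: LNCaP/AR(cs) cells without added R1881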;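 as to PSA expression, agonist transcription: LNCaP/AR(cs) cells without added R1881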;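 as to SLUG expression, agonist transcription: LNCaP/AR(cs) cells without added R1881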;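 as to TMPRSS2 expression, agonist transcription: LNCaP/AR(cs) cells without added R1881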
Procedure: (§1) Total RNA was isolated using the Aurum™ total RNA isolation kit (BIO-RAD, Hercules, Calif.). RNA (1 μg) was reverse transcribed using the iScript cDNA synthesis kit (BIO-RAD, Hercules, Calif.) to produce cDNA. Real-time PCR was performed using the Applied Biosystems 7900HT instrument and SYBR Green PCR Master Mix (Applied Biosystems, Foster City, Calif.). PCR reactions were performed in 6 μL according to the manufacturer's protocol and a thermocycle protocol of 95° C. for 10 minutes followed by 40 cycles of 95° C. for 15 seconds and 58° C. for 1 minute. Androgen responsive gene (PSA, SLUG, TMPRSS2, STEAP4, FKBP5, ORM1, NOV, FASN, NKX3.1, AMIGO2, BDNF, CAMK2N1, HPGD, NCAPD3, PLD1) expression was normalized to GAPDH expression and expressed relative to vehicle treatment of the parental cell line.
Gene expression was normalized to GAPDH as described above.

[2] = test system: Class 1 resistant cell lines; assay: as above; format: cell-based, human
Procedure: as §1

[3] = Table 4A, 1 nM R1881 or 30 μM compound, vehicle=1.00

CNC(=O)c1ccc(N2C(=S)N(c3ccc(C#N)c(C(F)(F)F)c3)C(=O)C2(C)C)cc1F [Enzalutamide, enzalutamide]
NKX3.1 gene expression [1, 3]: 2.51
ORM1 gene expression [1, 3]: 3.58
PLD1 gene expression [1, 3]: 0.65
PSA gene expression [1, 3]: 2.69
SLUG gene expression [1, 3]: 2.06
TMPRSS2 gene expression [1, 3]: 2.36
AMIGO2 expression, agonist transcription ([1]; −R1881, 0.3 μM): 0.68
CAM2KN1 expression, agonist transcription ([1]; −R1881, 0.3 μM): 0.80
FASN expression, agonist transcription ([1]; −R1881, 0.3 μM): 0.47
FKBP5 expression, agonist transcription ([1]; −R1881, 0.3 μM): 0.91
HPGD expression, agonist transcription ([1]; −R1881, 0.3 μM): 0.74
NCAPD3 expression, agonist transcription ([1]; −R1881, 0.3 μM): 0.66
NKX3.1 expression, agonist transcription ([1]; −R1881, 0.3 μM): 0.71
NOV expression, agonist transcription ([1]; −R1881, 0.3 μM): 1.12
ORM1 expression, agonist transcription ([1]; −R1881, 0.3 μM): 0.92
PLD1 expression, agonist transcription ([1]; −R1881, 0.3 μM): 0.77
PSA expression, agonist transcription ([1]; −R1881, 0.3 μM): 0.42
SLUG expression, agonist transcription ([1]; −R1881, 0.3 μM): 0.53
STEAP4 expression, agonist transcription ([1]; −R1881, 0.3 μM): 0.75
TMPRSS2 expression, agonist transcription ([1]; −R1881, 0.3 μM): 0.75
AMIGO2 expression, agonist transcription ([1]; −R1881, 1 μM): 0.61
BDNF expression, agonist transcription ([1]; −R1881, 1 μM): 0.92
CAM2KN1 expression, agonist transcription ([1]; −R1881, 1 μM): 0.70
FASN expression, agonist transcription ([1]; −R1881, 1 μM): 0.32
FKBP5 expression, agonist transcription ([1]; −R1881, 1 μM): 0.62
HPGD expression, agonist transcription ([1]; −R1881, 1 μM): 0.57
NCAPD3 expression, agonist transcription ([1]; −R1881, 1 μM): 0.57
NKX3.1 expression, agonist transcription ([1]; −R1881, 1 μM): 0.52
NOV expression, agonist transcription ([1]; −R1881, 1 μM): 0.91
ORM1 expression, agonist transcription ([1]; −R1881, 1 μM): 0.90
PLD1 expression, agonist transcription ([1]; −R1881, 1 μM): 0.62
PSA expression, agonist transcription ([1]; −R1881, 1 μM): 0.32
SLUG expression, agonist transcription ([1]; −R1881, 1 μM): 0.55
STEAP4 expression, agonist transcription ([1]; −R1881, 1 μM): 0.73
TMPRSS2 expression, agonist transcription ([1]; −R1881, 1 μM): 0.53
AMIGO2 expression, agonist transcription ([1]; −R1881, 3 μM): 0.62
BDNF expression, agonist transcription ([1]; −R1881, 3 μM): 0.88
CAM2KN1 expression, agonist transcription ([1]; −R1881, 3 μM): 0.71
FASN expression, agonist transcription ([1]; −R1881, 3 μM): 0.29
FKBP5 expression, agonist transcription ([1]; −R1881, 3 μM): 0.75
HPGD expression, agonist transcription ([1]; −R1881, 3 μM): 0.61
NCAPD3 expression, agonist transcription ([1]; −R1881, 3 μM): 0.47
NKX3.1 expression, agonist transcription ([1]; −R1881, 3 μM): 0.51
NOV expression, agonist transcription ([1]; −R1881, 3 μM): 0.80
ORM1 expression, agonist transcription ([1]; −R1881, 3 μM): 1.06
PLD1 expression, agonist transcription ([1]; −R1881, 3 μM): 0.63
PSA expression, agonist transcription ([1]; −R1881, 3 μM): 0.38
SLUG expression, agonist transcription ([1]; −R1881, 3 μM): 0.31
STEAP4 expression, agonist transcription ([1]; −R1881, 3 μM): 0.52
TMPRSS2 expression, agonist transcription ([1]; −R1881, 3 μM): 0.63
AMIGO2 expression, agonist transcription ([1]; −R1881, 10 μM): 0.66
BDNF expression, agonist transcription ([1]; −R1881, 10 μM): 0.95
CAM2KN1 expression, agonist transcription ([1]; −R1881, 10 μM): 0.64
FASN expression, agonist transcription ([1]; −R1881, 10 μM): 0.31
FKBP5 expression, agonist transcription ([1]; −R1881, 10 μM): 0.61
HPGD expression, agonist transcription ([1]; −R1881, 10 μM): 0.63
NCAPD3 expression, agonist transcription ([1]; −R1881, 10 μM): 0.56
NKX3.1 expression, agonist transcription ([1]; −R1881, 10 μM): 0.86
ORM1 expression, agonist transcription ([1]; −R1881, 10 μM): 0.71
PLD1 expression, agonist transcription ([1]; −R1881, 10 μM): 0.56
PSA expression, agonist transcription ([1]; −R1881, 10 μM): 0.74
SLUG expression, agonist transcription ([1]; −R1881, 10 μM): 0.51
STEAP4 expression, agonist transcription ([1]; −R1881, 10 μM): 1.16
TMPRSS2 expression, agonist transcription ([1]; −R1881, 10 μM): 0.89
CAM2KN1 expression, agonist transcription ([1]; −R1881, 30 μM): 0.64
FKBP5 expression, agonist transcription ([1]; −R1881, 30 μM): 0.85
NCAPD3 expression, agonist transcription ([1]; −R1881, 30 μM): 0.79
NKX3.1 expression, agonist transcription ([1]; −R1881, 30 μM): 1.63
ORM1 expression, agonist transcription ([1]; −R1881, 30 μM): 2.02
PLD1 expression, agonist transcription ([1]; −R1881, 30 μM): 0.56
PSA expression, agonist transcription ([1]; −R1881, 30 μM): 1.60
SLUG expression, agonist transcription ([1]; −R1881, 30 μM): 0.91
TMPRSS2 expression, agonist transcription ([1]; −R1881, 30 μM): 1.45
Transcriptional activity on endogenous androgen-responsive genes, Class 1 resistant cells [2]: weak transcriptional agonist
